From US20210284691A1, “CBX8 CHROMDOMAIN INHIBITORS AND THE USES THEREOF” (Purdue Research Foundation, priority 2019, published 2021)
Square brackets hold non-standard residues; d marks the D form. Primed or numbered codes have the meaning given here. Ends that are not written are not given here. Peptide text beside a SMILES is read from it. * marks the point of attachment. Isoxazole3carbonyl(5-Me) = Cc1cc(C(=O)*)no1; Tyr(3-Cl) = N[C@@H](Cc1ccc(O)c(Cl)c1)C(=O)O; Lys(Et2) = CCN(CC)CCCC[C@H](N)C(=O)O; PEG4′ = not defined here; NH(propargyl) = C#CCN*

Key:
CBX8 ChD = target: T1, CBX8 ChD (Homo sapiens, UniProt Q9HC52); experiment: Direct fluorescence polarization (FP) binding assay; details: from Kd values
T1 construct: CBX chromodomain constructs; host or cells: E. coli BL21 CodonPlus RIL
T1 sequence (Q9HC52 11-69 limits assumed): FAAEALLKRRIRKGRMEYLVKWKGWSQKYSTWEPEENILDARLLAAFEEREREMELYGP
Procedure: Bacterial growth was completed at 37° C. in LB media to OD600=2.0, followed by reducing the temperature to 16° C. over 30-60 min and induced with 1 mM IPTG for 16 h. Cells were collected by centrifugation at 6000 rpm for 20 min and resuspended in ChD binding buffer (20 mM Tris, pH 8, 150 mM NaCl, 0.01% Tween-20, 20 mM imidazole) with 1.0 mM PMSF. Bacteria pellets were stored at −80° C. until needed. Pellets were thawed on ice for 10 min in ChD binding buffer, and shaked at 4° C. supplemented with 100 μg/mL lysozyme, 1 mg/mL CHAPS and 1 mM PMSF, for 30 min. Cells were subsequently lysed by sonication (15 W, 30 s on, followed by 30 s off, twice, followed by 20 W for 1 min). The solubilized fraction was collected by centrifugation at 15000 rpm for 40 min at 4° C. Meanwhile, Ni-NTA Agarose resin (QIAGEN, Venlo, Netherlands) was washed with H2O and equilibrated with ChD binding buffer. The soluble fraction was incubated with the prewashed Ni-NTA agarose resin at 4° C. for 2 h. The resin was then washed 3× with ChD purification buffer (20 mM Tris, pH 8, 150 mM NaCl, 0.01% Tween-20, 1 mM PMSF). Proteins were eluted by the addition of 0.5 M imidazole to ChD purification buffer. The elution was diluted with 30% glycerol, flash frozen, and stored at −80° C. until needed. Protein purity was assessed by SDS-PAGE and concentration was determined by the Pierce 660 kit (Thermo Scientific).
Direct fluorescence polarization (FP) binding assay of PSL hits against PcG CBX ChDs. FP assays were conducted as above with slight modifications. Alkyne peptides described above were conjugated with a fluorescein group(5-/6-FAM) through copper catalyzed click reaction as previously described. The FAM-labeled peptide was kept constant at 100 nM. The CBX ChD proteins were titrated by 2-fold series dilutions in the assays. The highest protein concentrations, at which FAM-peptide was completely bound, used for each CBX in the direct binding assays depends on the binding affinity of the peptides. Assays were performed for each peptide in four replicates.

CBX8 regulated gene = experiment: Gene expression of a CBX8 regulated gene in HEK293T cells; assay type: cell-based, Human; details: high compound concentrations
[1] = target: T2, CBX8 binding to chromatin (Homo sapiens, UniProt Q9HC52); experiment: ChIP-qPCR in Hs68 fibroblast cells; assay type: cell-based; details: 120 μM
T2 construct: endogenous in cells; host or cells: Hs68 fibroblasts (A16); HEK293T (A19); K562 (A23)
T2 sequence (Q9HC52 1-389): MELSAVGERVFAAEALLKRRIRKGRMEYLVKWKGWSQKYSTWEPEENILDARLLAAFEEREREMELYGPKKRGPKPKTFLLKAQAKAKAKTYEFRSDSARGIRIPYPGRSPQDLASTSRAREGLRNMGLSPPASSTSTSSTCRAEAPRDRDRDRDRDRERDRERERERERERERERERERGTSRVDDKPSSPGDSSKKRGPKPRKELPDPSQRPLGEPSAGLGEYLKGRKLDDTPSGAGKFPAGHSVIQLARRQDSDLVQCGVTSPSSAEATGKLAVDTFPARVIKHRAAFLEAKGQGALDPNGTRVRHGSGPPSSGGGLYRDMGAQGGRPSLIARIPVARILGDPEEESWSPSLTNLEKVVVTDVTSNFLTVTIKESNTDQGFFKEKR
Procedure: ChIP: Hs68 cells were seeded at 4×10^6 in a 10 cm cell culture plates 16 hours prior to treatment. […] ChIP was performed as described in Connelly et al., 2018. Birefly, cells were washed with PBS and fixed on the plate with CiA Fix buffer (50 mM HEPES, pH 8.0, 1 mM EDTA, 0.5 mM ETGA, 100 mM NaCl) and 1% formaldehyde for 10 min at room temperature. Crosslinking was quenched with 0.125 M glycine for 5 min at 4° C. Cells were washed once with PBS and lifted off the plate then resuspended in CiA NP Rinse buffer 1 (50 mM HEPES pH 8.0, 140 mM NaCl, 1 mM EDTA, 10% glycerol, 0.5% NP-40, 0.25% Triton X) for 10 min. Cells were pelleted at 1200×g for 5 min at 4° C. The supernatant was removed, and the cells were resuspended in CiA NP rinse buffer 2 (10 mM Tris pH 8.0, 1 mM EDTA, 0.5 mM EGTA, 200 mM NaCl). Cells were collected by centrifugation, 1200×g for 5 min. Supernatant was removed and the cells were washed twice with shearing buffer (0.1% SDS, 1 mM EDTA, 10 mM Tris HCl, pH 8.0). Cells were resuspended in shearing buffer and sonicated for 7 min with the probe (Branson). Lysate was centrifuged at 21,000×g for 15 min to remove debris. Supernatant was collected and pre-cleared overnight with Protein A/G magnetic beads (Pierce). […]
qPCR: qPCR was performed on the isolated ChIP DNA using SYBR master mix (Thermo) and run on the BioRad CFX thermo cycler. […] Enrichment was determined by percent input. […]

THP1 cells = details: 50 μM
Procedure: Cells were grown for 72 h before trypsinized and counted. Cell suspension was homogenized by gentle pipetting and counted using Countess II (#AMQAF1000, Life Technologies). […] At day 6, 25 percent of cells in each well were split and transferred to new wells to avoid over-confluency, and media was replaced with fresh compounds in new media. The cell viability assay was extended to 12 days, with cell counting and fresh compound replenishment at day 3, 6, 9.
Luminescence was normalized to DMSO-treated groups. The IC50 was calculated using the “log[inhibitor] vs. the normalized response-variable slope” equation in GraphPad Prism 7.

LNCaP_NED cells = experiment: LNCaP_NED cell proliferation, viability and morphology; assay type: cell-based; details: enzalutamide treatment
Description: FIG. 12A). Neuroendocrine differentiation (NED) of prostate cancer induced by androgen deprivation. Representative pictures of LNCaP cells treated with normal media or charcoal-stripped serum (CSS) media for 6 days to induce neuroendocrine differentiation (LNCaP_NED). FIG. 12B). Transcriptional fold changes of KLK3/TMPRSS2/ENO2/CHGA were quantified normalized to control gene YWHAZ upon CSS media treatment for 6 or 9 days. FIG. 12C). Western blotting of CBX paralogs in LNCaP and LNCaP_NED cells generated from 14-day CSS treatment. FIG. 12D). Cell proliferation of LNCaP_NED following 5 days incubation with 2 or 10 μM SW2_152F. DMSO was used as negative control. FIG. 12E). LNCaP_NED cells were treated with 10 μM SW2_152F for 24 h-96 h. Cell morphology pictures were captured starting from 24 h. Average cell size were plotted at 24 h or 48 h for both DMSO group and compound treated group. FIG. 12F). LNCaP_NED cells were treated with 10 μM or 50 μM SW2_152F for 48 hours. Transcriptional fold change of genes (KLK3/TMPRSS2/AR/CBX2) were normalized to YWHAZ in LNCaP_NED cells with SW2_152F treatment or DMSO. FIG. 12G). LNCaP cells were treated with DMSO. LNCaP_NED cells were treated with DMSO, 10 μM GSK343 or 10 μM SW2_152F for 48 hours. Whole cell lysates were extracted for western blotting. FIG. 12H). LNCaP_NED cells were treated with DMSO or 10 μM SW2_152F for 4 hours before harvest. Binding of H3K27me3 and CBX2 at specific genomic sites (KLK3/TMPRSS2, e: enhancer, p: promoter) were evaluated using chromatin immunoprecipitation-qPCR. For all experiments in the figure, error bars represent SEM n=3 biological replicates, p-values were calculated using two-tailed Student's t-test, *=p<0.05, **=p<0.01, ***=p<0.001, ****=p<0.0001.
Cellular Activity of CBX2 Inhibitor in Neuroendocrine Differentiation of Prostate Cancer—Generation of a Prostate Cancer Neuroendocrine Differentiation (NED) System. To generate an in vitro model for NED, we cultured the androgen-sensitive prostate cancer cell line LNCaP in charcoal-stripped serum (CSS), which lacks androgens as well as other steroids. Upon treatment with CSS media, LNCaP cells adopted morphological characteristics of neuroendocrine-like cells (LNCaP_NED), which include dominant nucleus, limited cytoplasm, dendrites (FIG. 12A) and a decreased proliferation rate. To monitor transcriptional changes during androgen deprivation, we quantified the changes in expression of two NED markers (ENO2 and CHGA) and two AR target genes (KLK3 and TMPRSS2) by RT-qPCR during 15 days of androgen deprivation. […] To verify that LNCaP_NED cells become resistant to AR antagonists, we tested the effects of the AR antagonist enzalutamide (ENZA) on cell proliferation.

LNCaP cells = experiment: LNCaP cell proliferation; assay type: cell-based; details: ENZA treatment
Description: To generate an in vitro model for NED, we cultured the androgen-sensitive prostate cancer cell line LNCaP in charcoal-stripped serum (CSS), which lacks androgens as well as other steroids. […] To verify that LNCaP_NED cells become resistant to AR antagonists, we tested the effects of the AR antagonist enzalutamide (ENZA) on cell proliferation.

endogenous CBX proteins = experiment: Peptide pull-down / chemoprecipitation from HEK293T lysates; assay type: binding, Human
Procedure: 2×10^7 HEK293T cells were seeded in a 15 cm cell culture dish overnight. Next day, media was removed and cells were washed with PBS. Cells were lysed with 5 ml Buffer A (25 mM HEPES, 5 mM KCl, 25 mM MgCl2, 0.05 mM EDTA, 10% glycerol, 0.1% NP-40, plus protease inhibitors) on ice for 15 minutes. The nuclei were pelleted and re-suspended in IP buffer (25 mM Tris, 300 mM NaCl, 1 mM EDTA, 1% NP-40, plus protease inhibitors) for 15 minutes. The sample were spun down at 15,000 rpm at 4° C. for 5 min and lysates were transferred to separate tubes. Protein concentrations were determined by Pierce 660 nm kit (Thermo Scientific). Streptavidin M-270 Dynabeads (Solulink, San Diego, Calif.) was washed three times with Pulldown Binding Buffer (50 mM Tris, 150 mM NaCl, 0.5 mM DTT). 10× of biotinylated peptides SW2_110A-B, as well as biotinylated H3K27me3 (21-44) and biotinylated H3 (21-44), were incubated with […] pre-equilibriumed beads at 4° C. for an hour. After biotin-peptide being immobilized on resin, extra unbound peptides were removed by 3× washing, and 200 μg of nuclear lysate supernatant was added to each washed and immobilized biotinylated peptide (biotin-H3, biotin-H3K27me3, SW2_110A-B). The mixture was rotated at 4° C. for 2 hours. Then, the depleted lysate was removed and the beads were washed with Pulldown Binding Buffer 3× at 4° C. […] ImageJ was employed to quantitate the protein bands.

C#CCNC(=O)[C@H](CO)NC(=O)[C@H](CCCCN(CC)CC)NC(=O)[C@@H](NC(=O)[C@@H](NC(=O)[C@H](Cc1ccc(O)c(Cl)c1)NC(=O)c1cc(C)on1)C(C)C)[C@@H](C)CC [KED97L] ({Isoxazole3carbonyl(5-Me)}-[Tyr(3-Cl)]VI[Lys(Et2)]S-{NH(propargyl)}; C-terminus assumed)
selectivity for CBX8 ChD over CBX7 ChD (CBX8 ChD): 20 fold | gene expression changes of a CBX8 regulated gene (CBX8 regulated gene): only slightly affected | CBX8 binding at a known target, ChIP-qPCR [1]: completely unaffected | THP1 cell viability (THP1 cells): only slightly affected

CNC(=O)c1ccc(N2C(=S)N(c3ccc(C#N)c(C(F)(F)F)c3)C(=O)C2(C)C)cc1F [enzalutamide, reference compound]
LNCaP_NED proliferation with AR antagonist (LNCaP_NED cells): no further decrease in proliferation | LNCaP proliferation with AR antagonist (LNCaP cells): highly decreased proliferation

SW2_152F-B: biotinylated SW2_152F (SEQ ID NO: 29) (PIKS-{PEG4′-biotin}; also: Pro1 alpha-amino modified, Lys3 side chain amino modified)
enrichment of endogenous CBX proteins by biotinylated ligand, immunoblot (endogenous CBX proteins): robustly enriched CBX2 and CBX8 with limited enrichment of other paralogs
